Assays:
[1] = tested on: Canton S embryos; test: Scoring of cephalic furrow formation and germband elongation in embryos; type: in vivo, Drosophila melanogaster
Procedure: Effects of EPS and cycloheximide or other agents on embryo development were scored using contemporaneous DIC optics and fluorescent visualization. Canton S embryos were collected from a 3 hr laying and aged one additional hour at 25° C. Embryos were treated with 1:10 EPS in H2O for 30-60 seconds followed by washing and immersion in 1 mM rhodamine B dye in PBS for 5 minutes with rocking. Embryos were washed four times in PBS and immersed in PBS containing 10 μM cycloheximide on a Kiehart slide. Embryos were allowed to develop an additional 1.5 hours at ambient temperature (˜23° C.). […] Variable treatments included omission of EPS exposure or omission of cycloheximide or other toxic agent. Each condition was assayed in three independent preparations of embryos with >180 embryos scored for each treatment condition.
We next sought to determine the feasibility of using an early embryogenesis endpoint as an indicator of teratogenic effects. In separate experiments using flies carrying the GFP reporter for the Dorsal protein we determined that CHX had profound effects on the morphogenetic movements of the embryo in the first 3-5 hours of development (see FIG. 13 below). During these stages formation of the cephalic furrow and germband elongation serve as landmarks that are easily identifiable under differential interference contrast (DIC) microscopy (see FIG. 8). […]

[2] = tested on: Dorsal-GFP embryos; test: Dorsal-GFP reporter in preblastoderm embryos; type: in vivo, Drosophila melanogaster; conditions: EPS treated preblastoderm embryos
From the text: We turned to the Dorsal-GFP transgenic fusion construct reporter to further examine the effects of the teratogen CHX. The Dorsal protein is the Drosophila NF-κB homolog which is central to signaling that establishes the dorsal-ventral axis in the embryo. Dorsal protein localizes to ventral cell nuclei where it acts to define the D/V axis.
Using this same Dorsal-GFP construct we see dynamic distribution of Dorsal-GFP in and out of the ventral nuclei of an EPS treated pre-blastoderm embryos (FIG. 13A, B). […] In many cases these early embryos are seen to stall in development. […] Embryos affected at slightly later stages show irregular nuclear Dorsal accumulation (FIG. 13D) as well as varied sizes in the nuclei present (FIG. 13E). It is interesting to note that these deformities occur more frequently in the anterior portion of the embryo, consistent with the gradient of dye dispersal seen in EPS treated embryos.

[3] = tested on: Drosophila embryos; test: Midgut development by blue yolk auto-fluorescence at Stage 16; type: in vivo, Drosophila melanogaster; conditions: EPS-treated 3 hr old embryos, 10 μM, 18° C., 20 hours
Procedure: The embryo develops into a larva in 22-24 hours at 25° C. (refer to FIG. 9A). […] We investigated a variety of morphological events leading up to stage 17 for potentially easily identifiable endpoints. Through monitoring development under fluorescence time-lapse imaging we observed the highly dynamic pattern of blue fluorescence emitted from the auto-fluorescence of yolk proteins in the embryo. At preblastodem stages a relatively uniformly dispersed blue fluorescence is seen across the embryo (FIG. 11A). Between 3-6 hours of development this pattern changes drastically as the yolk proteins are pushed aside during germband elongation (refer to FIG. 9A). […] Blue fluorescence is seen to consolidate in the lumen of the gut initially as one large mass in the newly fused midgut (FIG. 11A, 12 hrs). […] The compartmentalized strong blue fluorescence in the midgut makes normally developed Stage 16/17 embryos easily discernable under fluorescence (FIG. 11A, 14 hrs).
We next tested the utility of this endpoint to examine small molecule toxicity by exposing permeabilized embryos to cycloheximide (CHX), a potent protein synthesis inhibitor and teratogen. EPS-treated 3 hr old embryos were incubated in the presence (FIG. 11 D, E) or absence (FIG. 11A,B,C) of 10 μM CHX at 18° C. for 20 hours (equivalent to 10 hours at 25° C.) and examined under blue fluorescence. […]

[4] = tested on: engrailed-GFP embryos; conditions: EPS-permeabilized embryos
Procedure: Incubations of permeabilized embryos were carried out in two types of chambers. Longer-term incubations (6-48 hours) were done in a modified nitex basket (see FIG. 1). The basket-reservoir apparatus was covered with a tight fitting cap to limit evaporation and was incubated at 18° C. for continued development of the embryo. Short term incubations <3 hours were done in a slide chamber (see FIG. 2A). […] Incubations for early embryonic endpoints were done at room temperature and for later developmental endpoint (e.g. gut development and engrailed patterning) at 18° C.
Drug treatments were done by additions to the PBS solution reservoir during incubation in either the slide or basket chambers. Drugs used were: cycloheximide (Fluka 01810, MW=281.35, 50 mM stock in H2O), colchicine (Biomol Labs T118, MW=[…] in H2O), methylmercury chloride (Aldrich 442534, MW=251, 50 mM stock in DMSO), cytochalasin D (Sigma C8273, MW=507.6, 5 mM stock in DMSO) and cyclophosphamide (LKT C9609, MW=279.1, 100 mM stock in H2O).
The engrailed gene encodes a homeodomain transcription factor that is highly conserved in all metazoans. Engrailed is a segment polarity gene whose expression marks the […] boundary of each segment in the embryo. Engrailed also function in neural development to define developing brain regions and regulate growth of axons.

[5] = Miscibility with water; type: physicochemical; conditions: without surfactant
Procedure: The presence of at least one surfactant is required to allow for the formation of a stable emulsion for sufficient time to allow for permeabilization of the embryos (i.e., at least about 10 minutes).

In the case of `C[C@@H]1C[C@@H]([C@H](O)CC2CC(=O)NC(=O)C2)C(=O)[C@@H](C)C1` [CHX, cycloheximide], the cephalic furrow formation ([1]; 2.5 hr old permeabilized embryos, 10 μM, 1.5 hours) is reported as “disruption of cephalic furrow formation”, the “EPS treated embryos with abnormal formation of the cephalic furrow” value ([1]; CHX 10 μM, EPS treated embryos) is reported as “more than 80%” and the “pattern of nuclear divisions and Dorsal-GFP distribution” value [2] is reported as “gross deformities in the pattern of nuclear divisions and Dorsal distribution”. The “gut development (blue fluorescence pattern)” value [3] was “induced gut malformation”.
For `O=P1(N(CCCl)CCCl)NCCCO1` (centres unmarked) [cyclophosphamide], the “engrailed-GFP expression pattern and embryo development” value [4] was “overall shortening of the embryo and generates breaks in the bands of engrailed expressing cells”.
For `[CH3][Hg][Cl]` [MeHg, methylmercury chloride], the “engrailed-GFP expression pattern and embryo development” value [4] was “stalls the embryo at Stage 11 and disrupts the regularity of engrailed banding pattern”.
For `C=C(C)C1CC=C(C)CC1` [Limonene, D-Limonene], the miscibility with water [5] was “not miscible with water”.
In the case of `C=C1[C@@H](C)[C@H]2[C@H](Cc3ccccc3)NC(=O)[C@]23[C@H](OC(C)=O)/C=C/[C@@](C)(O)C(=O)[C@@H](C)C/C=C/[C@H]3[C@@H]1O` [Cytochalasin D, cytochalasin D], the “engrailed-GFP expression pattern and embryo development” value [4] is reported as “stalling of embryo development at Stage 11 with gaps in the Engrailed band of cells in several segments”.
